From US11986532B2 (Arvinas Operations, Inc., priority 2021, dated 2024)
Where two headings read alike, the source gives them in different places.

Target: T1, BCL6 (Homo sapiens, UniProt P41182)
T1 construct: endogenous in cells; host or cells: T47D breast cancer epithelial cells
Assay: Immunofluorescence protocol for high content imaging of BCL6 (degradation) in T47D cells, 3 days compound treatment
Assay type: cell-based
Conditions: for DC50: read-out: Mean DC50 (nM)* category; for Dmax: read-out: Mean Dmax (%)** category
Method in brief: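 Remaining BCL6 in breast cancer T47D cells was measured by high-content immunofluorescence imaging after 3 days of treatment with serially diluted compound (top 0.1 or 1 μM). Nuclei were stained with Hoechst and cells with CellMask.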

[1] = T47D cells, 3 days compound treatment

| DC50 [1] [nM] | Dmax [1] [%] | Structure (SMILES) | Dmax (T47D) [%] | DC50 [nM] |
| --- | --- | --- | --- | --- |
| < 10 | 50 to 70 | CNC(=O)COc1cc2cc(Nc3nc(N4CCC5(CC4)CC(C(=O)N4CCC(c6cccc7c6CN(C6CCC(=O)NC6=O)C7=O)CC4)C5)ncc3Cl)ccc2n(C(C)C)c1=O (stereo not drawn) [Compound 19, 2-[(6-{[5-chloro-2-(2-{4-[2-(2,6-dioxopiperidin-3-yl)-1-oxo-2,3-dihydro-1H-isoindol-4-yl]piperidine-1-carbonyl}-7-azaspiro [3.5]nonan-7-yl)pyrimidin-4-yl]amino}-2-oxo-1-(propan-2-yl)-1,2-dihydroquinolin-3-yl)oxy]-N-methylacetamide] |  |  |
|  |  | CNC(=O)COc1cc2cc(Nc3nc(N4CCC(O[C@H]5C[C@H](N6CCC7(CCN(c8ccc9c(c8)C(=O)N(C8CCC(=O)NC8=O)C9=O)CC7)CC6)C5)CC4)ncc3Cl)ccc2n(C(C)C)c1=O (stereo partly drawn) [Compound 343, 2-({6-[(5-chloro-2-{4-[(1r,3r)-3-{9-[2-(2,6-dioxopiperidin-3-yl)-1,3-dioxo-2,3-dihydro-1H-isoindol-5-yl]-3,9-diazaspiro [5.5]undecan-3-yl}cyclobutoxy]piperidin-1-yl}pyrimidin-4-yl)amino]-2-oxo-1-(propan-2-yl)-1,2-dihydroquinolin-3-yl}oxy)-N-methylacetamide] | 50 to 70 | < 10 |
|  |  | CNC(=O)COc1cc2cc(Nc3nc(N4CCC(O[C@H]5C[C@H](N6CCC7(CCN(c8ccc9c(c8)C(=O)N(C8CCC(=O)NC8=O)C9=O)C7)C6)C5)CC4)ncc3Cl)ccc2n(C(C)C)c1=O (stereo partly drawn) [Compound 339, 2-({6-[(5-chloro-2-{4-[(1r,3r)-3-{7-[2-(2,6-dioxopiperidin-3-yl)-1,3-dioxo-2,3-dihydro-1H-isoindol-5-yl]-2,7-diazaspiro[4.4]nonan-2-yl}cyclobutoxy]piperidin-1-yl}pyrimidin-4-yl)amino]-2-oxo-1-(propan-2-yl)-1,2-dihydroquinolin-3-yl}oxy)-N-methylacetamide] | 50 to 70 | < 10 |
|  |  | CNC(=O)COc1cc2cc(Nc3nc(N4CCC(O[C@H]5C[C@H](N6CC7(CCN(c8ccc9c(c8F)CN(C8CCC(=O)NC8=O)C9=O)CC7)C6)C5)CC4)ncc3Cl)ccc2n(C(C)C)c1=O (stereo partly drawn) [Compound 393, 2-({6-[(5-chloro-2-{4-[(1r,3r)-3-{7-[2-(2,6-dioxopiperidin-3-yl)-4-fluoro-1-oxo-2,3-dihydro-1H-isoindol-5-yl]-2,7-diazaspiro[3.5]nonan-2-yl}cyclobutoxy]piperidin-1-yl}pyrimidin-4-yl)amino]-2-oxo-1-(propan-2-yl)-1,2-dihydroquinolin-3-yl}oxy)-N-methylacetamide] | ≥ 70 | < 10 |
| < 10 | 50 to 70 | CNC(=O)COc1cc2cc(Nc3nc(N4CCN(CC5CCN(c6ccc(F)c7c6CN(C6CCC(=O)NC6=O)C7=O)CC5)CC4)ncc3Cl)ccc2n(C(C)C)c1=O (stereo not drawn) [Compound 120, 2-{[6-({5-chloro-2-[4-({1-[2-(2,6-dioxopiperidin-3-yl)-7-fluoro-1-oxo-2,3-dihydro-1H-isoindol-4-yl]piperidin-4-yl}methyl)piperazin-1-yl]pyrimidin-4-yl}amino)-2-oxo-1-(propan-2-yl)-1,2-dihydroquinolin-3-yl]oxy}-N-methylacetamide] |  |  |
| < 10 | 50 to 70 | CNC(=O)COc1cc2cc(Nc3nc(N4CCC(O[C@H]5CC[C@H](N6CCC(c7ccc8c(c7)C(=O)N(C7CCC(=O)NC7=O)C8=O)CC6)CC5)CC4)ncc3Cl)ccc2n(C(C)C)c1=O (stereo partly drawn) [Compound 117, 2-[(6-{[5-chloro-2-(4-{[(1r,4r)-4-{4-[2-(2,6-dioxopiperidin-3-yl)-1,3-dioxo-2,3-dihydro-1H-isoindol-5-yl]piperidin-1-yl}cyclohexyl]oxy}piperidin-1-yl)pyrimidin-4-yl]amino}-2-oxo-1-(propan-2-yl)-1,2-dihydroquinolin-3-yl)oxy]-N-methylacetamide] |  |  |
| < 10 | 50 to 70 | CNC(=O)COc1cc2cc(Nc3nc(N4CCN(CC5CCN(c6cc7c(cc6F)C(=O)N(C6CCC(=O)NC6=O)C7)CC5)CC4)ncc3Cl)ccc2n(C(C)C)c1=O (stereo not drawn) [Compound 15, 2-{[6-({5-chloro-2-[4-({1-[2-(2,6-dioxopiperidin-3-yl)-6-fluoro-1-oxo-2,3-dihydro-1H-isoindol-5-yl]piperidin-4-yl}methyl)piperazin-1-yl]pyrimidin-4-yl}amino)-2-oxo-1-(propan-2-yl)-1,2-dihydroquinolin-3-yl]oxy}-N-methylacetamide] |  |  |
|  |  | CNC(=O)COc1cc2cc(Nc3nc(N4CCC(OC5CCC6(CC5)CN(c5ccc7c(c5Cl)CN(C5CCC(=O)NC5=O)C7=O)C6)CC4)ncc3Cl)ccc2n(C(C)C)c1=O (stereo not drawn) [Compound 383, 2-{[6-({5-chloro-2-[4-({2-[4-chloro-2-(2,6-dioxopiperidin-3-yl)-1-oxo-2,3-dihydro-1H-isoindol-5-yl]-2-azaspiro[3.5]nonan-7-yl}oxy)piperidin-1-yl]pyrimidin-4-yl}amino)-2-oxo-1-(propan-2-yl)-1,2-dihydroquinolin-3-yl]oxy}-N-methylacetamide] | ≥ 70 | < 10 |
|  |  | CNC(=O)COc1cc2cc(Nc3nc(N4CCC(O[C@H]5C[C@H](N6CCC(c7ccc8c(c7)CN(C7CCC(=O)NC7=O)C8=O)C(F)(F)C6)C5)CC4)ncc3Cl)ccc2n(C(C)C)c1=O (stereo partly drawn) [Compound 218, 2-[[6-[[5-chloro-2-[4-[3-[4-[2-(2,6-dioxo-3-piperidyl)-1-oxo-isoindolin-5-yl]-3,3-difluoro-1-piperidyl]cyclobutoxy]-1-piperidyl]pyrimidin-4-yl]amino]-1-isopropyl-2-oxo-3-quinolyl]oxy]-N-methyl-acetamide] | ≥ 70 | < 10 |
|  |  | CNC(=O)COc1cc2cc(Nc3nc(N4CCC(O[C@H]5C[C@H](N6CCN(c7ccc8c(c7F)CN([C@H]7CCC(=O)NC7=O)C8=O)CC6)C5)CC4)ncc3Cl)ccc2n(C(C)C)c1=O [Compound 388, 2-({6-[(5-chloro-2-{4-[(1r,3r)-3-(4-{2-[(3S)-2,6-dioxopiperidin-3-yl]-4-fluoro-1-oxo-2,3-dihydro-1H-isoindol-5-yl}piperazin-1-yl)cyclobutoxy]piperidin-1-yl}pyrimidin-4-yl)amino]-2-oxo-1-(propan-2-yl)-1,2-dihydroquinolin-3-yl}oxy)-N-methylacetamide] | 50 to 70 | < 10 |
|  |  | [2H]C([2H])([2H])Oc1c(N2CC3(CCN(CC4CCN(c5ncc(Cl)c(Nc6ccc7c(c6)cc(OCC(=O)NC)c(=O)n7C(C)C)n5)CC4)CC3)C2(C)C)ccc2c1CN(C1CCC(=O)NC1=O)C2=O (stereo not drawn) [Compound 227, 2-{[6-({5-chloro-2-[4-({2-[2-(2,6-dioxopiperidin-3-yl)-4-(^2H3)methoxy-1-oxo-2,3-dihydro-1H-isoindol-5-yl]-1,1-dimethyl-2,7-diazaspiro[3.5]nonan-7-yl}methyl)piperidin-1-yl]pyrimidin-4-yl}amino)-2-oxo-1-(propan-2-yl)-1,2-dihydroquinolin-3-yl]oxy}-N-methylacetamide] | 50 to 70 | < 10 |
| < 10 | 50 to 70 | CNC(=O)COc1cc2cc(Nc3nc(N4CCC(CN5CC6(CCN(c7cc8c(cc7OC)C(=O)N(C7CCC(=O)NC7=O)C8)CC6)C5)CC4)ncc3Cl)ccc2n(C(C)C)c1=O (stereo not drawn) [Compound 85, 2-{[6-({5-chloro-2-[4-({7-[2-(2,6-dioxopiperidin-3-yl)-6-methoxy-1-oxo-2,3-dihydro-1H-isoindol-5-yl]-2,7-diazaspiro[3.5]nonan-2-yl}methyl)piperidin-1-yl]pyrimidin-4-yl}amino)-2-oxo-1-(propan-2-yl)-1,2-dihydroquinolin-3-yl]oxy}-N-methylacetamide] |  |  |
|  |  | CNC(=O)COc1cc2cc(Nc3nc(N4CCC(O[C@H]5C[C@H](N6CCN(c7ccc8c(c7F)CN([C@@H]7CCC(=O)NC7=O)C8=O)[C@H](C)C6)C5)CC4)ncc3Cl)ccc2n(C(C)C)c1=O [Compound 395, 2-({6-[(5-chloro-2-{4-[(1r,3r)-3-[(3R)-4-{2-[(3R)-2,6-dioxopiperidin-3-yl]-4-fluoro-1-oxo-2,3-dihydro-1H-isoindol-5-yl}-3-methylpiperazin-1-yl]cyclobutoxy]piperidin-1-yl}pyrimidin-4-yl)amino]-2-oxo-1-(propan-2-yl)-1,2-dihydroquinolin-3-yl}oxy)-N-methylacetamide] | ≥ 70 | < 10 |
| < 10 | 50 to 70 | CNC(=O)COc1cc2cc(Nc3nc(N4CCC(CN5CC6(CCN(c7ccc8c(c7F)CN(C7CCC(=O)NC7=O)C8=O)CC6)C5)CC4)ncc3Cl)ccc2n(C(C)C)c1=O (stereo not drawn) [Compound 87, 2-{[6-({5-chloro-2-[4-({7-[2-(2,6-dioxopiperidin-3-yl)-4-fluoro-1-oxo-2,3-dihydro-1H-isoindol-5-yl]-2,7-diazaspiro[3.5]nonan-2-yl}methyl)piperidin-1-yl]pyrimidin-4-yl}amino)-2-oxo-1-(propan-2-yl)-1,2-dihydroquinolin-3-yl]oxy}-N-methylacetamide] |  |  |

| Structure (SMILES) | DC50 [1] [nM] | Dmax [1] [%] | Dmax (T47D) [%] | DC50 [nM] |
| --- | --- | --- | --- | --- |
| CNC(=O)COc1cc2cc(Nc3nc(N4CCC(O[C@H]5C[C@H](N6C[C@@H](C)N(c7ccc8c(c7)CN(C7CCC(=O)NC7=O)C8=O)[C@H](C)C6)C5)CC4)ncc3Cl)ccc2n(C(C)C)c1=O (relative stereo) [Compound 179, 2-({6-[(5-chloro-2-{4-[(1r,3r)-3-[(3R*,5R*)-4-[2-(2,6-dioxopiperidin-3-yl)-1-oxo-2,3-dihydro-1H-isoindol-5-yl]-3,5-dimethylpiperazin-1-yl]cyclobutoxy]piperidin-1-yl}pyrimidin-4-yl)amino]-2-oxo-1-(propan-2-yl)-1,2-dihydroquinolin-3-yl}oxy)-N-methylacetamide] | < 10 | ≥ 70 |  |  |
